Results published in ChEMBL document CHEMBL1833968, “Synthesis of novel triplet drugs with 1,3,5-trioxazatriquinane skeletons and their pharmacologies. Part 2: Synthesis of novel triplet drugs with the epoxymethano structure (capped homotriplet)” (Bioorg Med Chem Lett, 2011).
Calls of active or inactive are those of the source. No cut-off for these calls is given here.

What was measured:
[1] = biological target: Delta-type opioid receptor (Mus musculus, UniProt P32300); test: Displacement of [3H]DPDPE from mouse delta opioid receptor in whole brain without cerebellum
Delta-type opioid receptor, sequence (P32300 whole entry): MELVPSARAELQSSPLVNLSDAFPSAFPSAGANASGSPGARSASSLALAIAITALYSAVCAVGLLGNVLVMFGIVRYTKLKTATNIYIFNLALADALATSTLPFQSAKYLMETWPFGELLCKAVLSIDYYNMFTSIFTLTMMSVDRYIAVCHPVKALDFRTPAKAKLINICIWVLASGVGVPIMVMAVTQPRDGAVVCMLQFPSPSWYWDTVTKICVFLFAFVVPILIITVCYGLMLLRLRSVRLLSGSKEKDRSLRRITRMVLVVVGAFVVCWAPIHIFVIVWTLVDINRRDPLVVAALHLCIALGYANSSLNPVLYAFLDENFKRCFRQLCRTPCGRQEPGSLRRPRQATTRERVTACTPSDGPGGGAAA

[2] = Selectivity ratio of Ki for guinea pig kappa opioid receptor to mouse mu opioid receptor
[3] = biological target: Kappa-type opioid receptor (Cavia porcellus, UniProt P41144); test: Displacement of [3H]U69,593 from guinea pig kappa opioid receptor in cerebellum
Kappa-type opioid receptor, sequence (P41144 whole entry): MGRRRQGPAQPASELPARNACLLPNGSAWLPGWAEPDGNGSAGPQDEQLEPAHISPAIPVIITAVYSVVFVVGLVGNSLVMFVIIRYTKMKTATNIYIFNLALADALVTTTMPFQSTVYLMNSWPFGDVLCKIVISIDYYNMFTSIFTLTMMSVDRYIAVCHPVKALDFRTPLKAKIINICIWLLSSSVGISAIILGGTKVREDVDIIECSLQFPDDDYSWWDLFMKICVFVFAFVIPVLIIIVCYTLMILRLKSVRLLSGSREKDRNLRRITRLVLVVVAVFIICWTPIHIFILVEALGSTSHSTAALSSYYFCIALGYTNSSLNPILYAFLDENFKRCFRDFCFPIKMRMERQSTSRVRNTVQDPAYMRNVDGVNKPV

[4] = biological target: Mu-type opioid receptor (Mus musculus, UniProt P42866); test: Displacement of [3H]DAMGO from mouse mu opioid receptor in whole brain without cerebellum
Mu-type opioid receptor, sequence (P42866 whole entry): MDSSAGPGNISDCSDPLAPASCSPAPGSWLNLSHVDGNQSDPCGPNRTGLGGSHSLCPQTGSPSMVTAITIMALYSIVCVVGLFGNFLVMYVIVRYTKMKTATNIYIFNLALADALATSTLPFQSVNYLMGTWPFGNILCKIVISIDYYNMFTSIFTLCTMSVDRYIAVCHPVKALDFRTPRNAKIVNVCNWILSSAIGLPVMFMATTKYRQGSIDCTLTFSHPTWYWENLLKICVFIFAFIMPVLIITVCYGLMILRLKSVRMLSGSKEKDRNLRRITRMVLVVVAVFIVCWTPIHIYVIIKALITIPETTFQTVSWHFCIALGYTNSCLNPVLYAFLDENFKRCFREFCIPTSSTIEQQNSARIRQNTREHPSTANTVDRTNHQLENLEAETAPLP

[5] = species: Mus musculus; test: Selectivity ratio of Ki for mouse delta opioid receptor to mouse mu receptor
[6] = tested on: Mus musculus; test: Antinociceptive activity in sc dosed mouse assessed as inhibition of acetic acid-induced writhing administered 15 mins before acetic acid challenge measured after 10 mins relative to control; type: functional
[7] = tested on: Mus musculus; test: Ratio of morphine ED50 to compound ED50 for antinociceptive activity in sc dosed mouse assessed as inhibition of acetic acid-induced writhing administered 15 mins before acetic acid challenge measured after 10 mins; type: functional

For `Oc1ccc2c3c1O[C@H]1[C@]4(CC[C@@]5(O)[C@@H](C2)N(CC2CC2)CC[C@]315)O[C@H]1CO[C@@H]2N1[C@H]4O[C@]21CC[C@@]2(O)[C@H]3Cc4ccc(O)c5c4[C@@]2(CCN3CC2CC2)[C@H]1O5`, the Ki [1] was 16.2 nM, the Ratio Ki [2] was 5.73 and the Ki [3] was 2.75 nM. The Ki [4] was 0.48 nM and the Ratio Ki [5] was 33.6.

For `Oc1ccc2c3c1O[C@H]1[C@]4(CC[C@@]5(O)[C@@H](C2)N(CC2CC2)CC[C@]315)O[C@@H]1CO[C@H]2N1[C@@H]4O[C@]21CC[C@@]2(O)[C@H]3Cc4ccc(O)c5c4[C@@]2(CCN3CC2CC2)[C@H]1O5`, the Ki [1] was over 1000 nM, the Ratio Ki [2] was 6.47 and the Ki [3] was 247 nM. It also gave a Ki [4] of 38.2 nM.

With `C=CCN1CC[C@]23c4c5ccc(O)c4O[C@H]2C(=O)CC[C@@]3(O)[C@H]1C5` the inhibition [6] was “inactive”.

`Oc1ccc2c3c1O[C@@H]1[C@]34CCN(CC3CC3)[C@H](C2)[C@]4(O)CC[C@@]12C=N[C@H]([C@]1(O)CC[C@@]3(O)[C@H]4Cc5ccc(O)c6c5[C@@]3(CCN4CC3CC3)[C@H]1O6)O2` showed a Ki [1] of 53.7 nM, a Ratio Ki [2] of 0.61 and a Ki [3] of 1.16 nM. The Ki [4] was 1.9 nM and the Ratio Ki [5] was 28.3.

`Oc1ccc2c(c1)[C@]13CCN(CC4CC4)[C@H](C2)[C@]1(O)CC[C@@]1(C3)O[C@H]2CO[C@@H]3N2[C@H]1O[C@]31CC[C@@]2(O)[C@H]3Cc4ccc(O)cc4[C@@]2(CCN3CC2CC2)C1` showed a Ki [1] of 5.98 nM, a Ratio Ki [2] of 11.2 and a Ki [3] of 8.67 nM. It also gave a Ki [4] of 0.771 nM and a Ratio Ki [5] of 7.76.

Compound `Oc1ccc2c3c1O[C@H]1[C@]4(CC[C@@]5(O)[C@@H](C2)N(CC2CCC2)CC[C@]315)O[C@H]1CO[C@@H]2N1[C@H]4O[C@]21CC[C@@]2(O)[C@H]3Cc4ccc(O)c5c4[C@@]2(CCN3CC2CCC2)[C@H]1O5` has a Ki [1] of 50 nM, a Ratio Ki [2] of 67.7 and a Ki [3] of 176 nM. The Ki [4] was 2.6 nM and the Ratio Ki [5] was 19.2.

With `Oc1ccc2c3c1O[C@H]1[C@]4(CC[C@H]5[C@@H](C2)N(CC2CC2)CC[C@@]351)O[C@H]1CO[C@@H]2N1[C@H]4O[C@]21CC[C@H]2[C@H]3Cc4ccc(O)c5c4[C@@]2(CCN3CC2CC2)[C@H]1O5` the Ki [1] was 7.8 nM, the Ratio Ki [2] was 8.84 and the Ki [3] was 6.36 nM. It also gave a Ki [4] of 0.719 nM and a Ratio Ki [5] of 10.8.

With `CC(C)CN1CC[C@]23c4c5ccc(O)c4O[C@H]2[C@]2(CC[C@@]3(O)[C@H]1C5)O[C@H]1CO[C@@H]3N1[C@H]2O[C@]31CC[C@@]2(O)[C@H]3Cc4ccc(O)c5c4[C@@]2(CCN3CC(C)C)[C@H]1O5` the Ki [1] was over 1000 nM, the Ratio Ki [2] was 4.7 and the Ki [3] was 119 nM. It also gave a Ki [4] of 25.3 nM.

For `CN1CC[C@]23c4c5ccc(O)c4O[C@H]2[C@]2(CC[C@@]3(O)[C@H]1C5)O[C@H]1CO[C@@H]3N1[C@H]2O[C@]31CC[C@@]2(O)[C@H]3Cc4ccc(O)c5c4[C@@]2(CCN3C)[C@H]1O5`, the Ki [1] was 52.9 nM, the Ratio Ki [2] was 161 and the Ki [3] was 337 nM. The “Ratio ED50” value [7] was 4, the ED50 [6] was 0.14 mg/kg and the inhibition [6] was “Dose-dependent effect”. For the same compound, the Ki [4] was 2.09 nM and the Ratio Ki [5] was 25.3.

`Oc1ccc2c3c1O[C@@H]1[C@]34CCN(CC3CC3)[C@H](C2)[C@]4(O)CC[C@@]12C=N[C@@H]([C@]1(O)CC[C@@]3(O)[C@H]4Cc5ccc(O)c6c5[C@@]3(CCN4CC3CC3)[C@H]1O6)O2` showed a Ki [1] of 39.6 nM, a Ratio Ki [2] of 1.61 and a Ki [3] of 1.66 nM. For the same compound, the Ki [4] was 1.03 nM and the Ratio Ki [5] was 38.4.
